Measured values taken from patent publication US10738056B2 (Aduro BioTech, Inc., priority 2017, dated 2020).

Key:
[1] = test system: cGAS/STING pathway in THP1 cells; test: THP1 cell-based cGAS/STING pathway activity assay (IRF-3-linked luciferase reporter); conditions: Homo sapiens, THP-1
Summary of the method: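 THP1 cells carrying an IRF-3-driven luciferase reporter were read across a range of compound concentrations, and IC50 values were derived from these concentration responses; the assay upper limit was 100 μM.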

[2] = biological target: Human cGAS amino acids 155-522 (Homo sapiens (Human), UniProt Q8N884); test: cGAS biochemical activity assay (ATP remaining, Kinase-Glo Max luminescence); conditions: human cGAS 155-522, ATP remaining (Kinase-Glo Max); read-out: cGAS IC50
Sequence of Human cGAS amino acids 155-522 (Q8N884 157-522): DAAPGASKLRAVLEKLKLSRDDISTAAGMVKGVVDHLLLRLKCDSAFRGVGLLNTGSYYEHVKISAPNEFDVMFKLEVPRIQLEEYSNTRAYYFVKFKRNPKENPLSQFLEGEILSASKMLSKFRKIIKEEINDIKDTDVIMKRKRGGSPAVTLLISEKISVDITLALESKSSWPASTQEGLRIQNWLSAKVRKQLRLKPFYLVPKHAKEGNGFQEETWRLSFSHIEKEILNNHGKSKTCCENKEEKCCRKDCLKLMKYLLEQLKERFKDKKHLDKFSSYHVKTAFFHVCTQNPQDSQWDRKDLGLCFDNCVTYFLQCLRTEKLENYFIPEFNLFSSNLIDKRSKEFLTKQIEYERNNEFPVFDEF

SMILES | IC50 [1] [µM] | IC50 [2] [µM]
COc1cccc2oc(-c3c(C(=O)Nc4ccn(C)n4)[nH]c4c(-c5ccccc5)c(C(F)(F)F)nn4c3=O)nc12 [Compound C1256, 6-(4-methoxybenzo[d]oxazol-2-yl)-N-(1-methyl-1H-pyrazol-3-yl)-7-oxo-3-phenyl-2-(trifluoromethyl)-4,7-dihydropyrazolo[1,5-a]pyrimidine-5-carboxamide] | > 100 | < 20
Cc1[nH]c2c(-c3ccccc3)c(C(F)(F)F)nn2c(=O)c1-c1nc2ccccc2n1-c1ccccc1 [Compound C1229, 5-methyl-3-phenyl-6-(1-phenyl-1H-benzo[d]imidazol-2-yl)-2-(trifluoromethyl)pyrazolo[1,5-a]pyrimidin-7(4H)-one] | < 20 | 20 to 250
CCc1cccc2oc(-c3c(C)[nH]c4c(-c5ccccc5)c(C#N)nn4c3=O)nc12 [Compound C1188, 6-(4-ethylbenzo[d]oxazol-2-yl)-5-methyl-7-oxo-3-phenyl-4,7-dihydropyrazolo[1,5-a]pyrimidine-2-carbonitrile] | < 20 | < 20
CSc1cccc2oc(-c3c(C)[nH]c4c(-c5ccccc5)c(C#N)nn4c3=O)nc12 [Compound C1204, 5-methyl-6-(4-(methylthio)benzo[d]oxazol-2-yl)-7-oxo-3-phenyl-4,7-dihydropyrazolo[1,5-a]pyrimidine-2-carbonitrile] | > 100 | < 20
COc1cc(N)c(Cl)c2oc(-c3c(C)[nH]c4c(-c5ccccc5)c(C#N)nn4c3=O)nc12 [Compound C1202, 6-(6-amino-7-chloro-4-methoxybenzo[d]oxazol-2-yl)-5-methyl-7-oxo-3-phenyl-4,7-dihydropyrazolo[1,5-a]pyrimidine-2-carbonitrile] | 20 to 100 | < 20
COCc1nnc(-c2c(C)[nH]c3c(-c4ccccc4)c(C(F)(F)F)nn3c2=O)o1 [Compound D1019, 6-(5-(methoxymethyl)-1,3,4-oxadiazol-2-yl)-5-methyl-3-phenyl-2-(trifluoromethyl)pyrazolo[1,5-a]pyrimidin-7(4H)-one] | > 100 | < 20
COc1ccc(S(C)(=O)=O)c2oc(-c3c(C)[nH]c4c(-c5ccccc5)c(C(F)(F)F)nn4c3=O)nc12 [Compound C1125, 6-(4-methoxy-7-(methylsulfonyl)benzo[d]oxazol-2-yl)-5-methyl-3-phenyl-2-(trifluoromethyl)pyrazolo[1,5-a]pyrimidin-7(4H)-one] | 20 to 100 | < 20
Cc1[nH]c2c(-c3ccccc3)c(C(F)(F)F)nn2c(=O)c1-c1nc(C(=O)O)co1 [Compound C1165, 2-(5-methyl-7-oxo-3-phenyl-2-(trifluoromethyl)-4,7-dihydropyrazolo[1,5-a]pyrimidin-6-yl)oxazole-4-carboxylic acid] | > 100 | < 20
COc1cccc2nc(-c3c(C)[nH]c4c(-c5ccccc5)c(C(F)(F)F)nn4c3=O)oc12 [Compound C1022, 6-(7-methoxybenzo[d]oxazol-2-yl)-5-methyl-3-phenyl-2-(trifluoromethyl)pyrazolo[1,5-a]pyrimidin-7(4H)-one] | 20 to 100 | < 20
Cc1[nH]c2c(-c3ccccc3)c(C(F)(F)F)nn2c(=O)c1-c1nnc(N2CCCCC2)o1 [Compound D1020, 5-methyl-3-phenyl-6-(5-(piperidin-1-yl)-1,3,4-oxadiazol-2-yl)-2-(trifluoromethyl)pyrazolo[1,5-a]pyrimidin-7(4H)-one] | > 100 | < 20
COc1cccc2oc(-c3c(C(=O)NC4COC4)[nH]c4c(-c5ccccc5)c(C(F)(F)F)nn4c3=O)nc12 [Compound C1185, 6-(4-methoxybenzo[d]oxazol-2-yl)-N-(oxetan-3-yl)-7-oxo-3-phenyl-2-(trifluoromethyl)-4,7-dihydropyrazolo[1,5-a]pyrimidine-5-carboxamide] | 20 to 100 | < 20
COc1cccc2[nH]c(-c3c(C)[nH]c4c(-c5ccccc5)c(C(F)(F)F)nn4c3=O)nc12 [Compound C1018, 6-(4-methoxy-1H-benzo[d]imidazol-2-yl)-5-methyl-3-phenyl-2-(trifluoromethyl)pyrazolo[1,5-a]pyrimidin-7(4H)-one] | > 100 | < 20
COc1cc(NC(=O)c2c(C)[nH]c3c(-c4ccccc4)c(C(F)(F)F)nn3c2=O)cc(OC)c1 [Compound A1067, N-(3,5-dimethoxyphenyl)-5-methyl-7-oxo-3-phenyl-2-(trifluoromethyl)-4,7-dihydropyrazolo[1,5-a]pyrimidine-6-carboxamide] | > 100 | < 20
COc1cc(C#N)cc2oc(-c3c(C)[nH]c4c(-c5ccccc5)c(C(F)(F)F)nn4c3=O)nc12 [Compound C1112, 4-methoxy-2-(5-methyl-7-oxo-3-phenyl-2-(trifluoromethyl)-4,7-dihydropyrazolo[1,5-a]pyrimidin-6-yl)benzo[d]oxazole-6-carbonitrile] | > 100 | 20 to 250
Cc1[nH]c2c(-c3ccccc3)c(C#N)nn2c(=O)c1-c1nc2cccc(N)c2o1 [Compound C1230, 6-(7-aminobenzo[d]oxazol-2-yl)-5-methyl-7-oxo-3-phenyl-4,7-dihydropyrazolo[1,5-a]pyrimidine-2-carbonitrile] | > 100 | < 20
COc1cccc2oc(-c3c(C(=O)NCC(C)(C)O)[nH]c4c(-c5ccccc5)c(C(F)(F)F)nn4c3=O)nc12 [Compound C1219, N-(2-hydroxy-2-methylpropyl)-6-(4-methoxybenzo[d]oxazol-2-yl)-7-oxo-3-phenyl-2-(trifluoromethyl)-4,7-dihydropyrazolo[1,5-a]pyrimidine-5-carboxamide] | > 100 | < 20
Cc1[nH]c2c(-c3ccccc3)c(C(F)(F)F)nn2c(=O)c1-c1nnc(C2COCCN2S(C)(=O)=O)o1 (centres unmarked) [Compound D1047, 5-methyl-6-(5-(4-(methylsulfonyl)morpholin-3-yl)-1,3,4-oxadiazol-2-yl)-3-phenyl-2-(trifluoromethyl)pyrazolo[1,5-a]pyrimidin-7(4H)-one] | > 100 | < 20
Cc1nn2c(=O)c(C(=O)Nc3ccccc3S(C)(=O)=O)c(C)[nH]c2c1-c1ccccc1 [Compound A1106, 2,5-dimethyl-N-(2-(methylsulfonyl)phenyl)-7-oxo-3-phenyl-4,7-dihydropyrazolo[1,5-a]pyrimidine-6-carboxamide] | > 100 | < 20
COc1ccc(NC(=O)c2c(C)[nH]c3c(-c4ccccc4)c(C(F)(F)F)nn3c2=O)cn1 [Compound A1088, N-(6-methoxypyridin-3-yl)-5-methyl-7-oxo-3-phenyl-2-(trifluoromethyl)-4,7-dihydropyrazolo[1,5-a]pyrimidine-6-carboxamide] | 20 to 100 | 20 to 250
COc1ccccc1NC(=O)c1c(C)[nH]c2c(-c3ccccc3)c(C(F)(F)F)nn2c1=O [Compound A1031, N-(2-methoxyphenyl)-5-methyl-7-oxo-3-phenyl-2-(trifluoromethyl)-4,7-dihydropyrazolo[1,5-a]pyrimidine-6-carboxamide] | > 100 | < 20
Cc1[nH]c2c(-c3ccccc3)c(C(F)(F)F)nn2c(=O)c1C(=O)NS(=O)(=O)c1ccccc1 [Compound A1116, 5-methyl-7-oxo-3-phenyl-N-(phenylsulfonyl)-2-(trifluoromethyl)-4,7-dihydropyrazolo[1,5-a]pyrimidine-6-carboxamide] | 20 to 100 | < 20
CCOc1cccc2oc(-c3c(C)[nH]c4c(-c5ccccc5)c(C(F)(F)F)nn4c3=O)nc12 [Compound C1038, 6-(4-ethoxybenzo[d]oxazol-2-yl)-5-methyl-3-phenyl-2-(trifluoromethyl)pyrazolo[1,5-a]pyrimidin-7(4H)-one] | < 20 | < 20
COc1cccc2oc(-c3c(C(=O)NCC(O)C(F)(F)F)[nH]c4c(-c5ccccc5)c(C(F)(F)F)nn4c3=O)nc12 (centres unmarked) [Compound C1209, 6-(4-methoxybenzo[d]oxazol-2-yl)-7-oxo-3-phenyl-N-(3,3,3-trifluoro-2-hydroxypropyl)-2-(trifluoromethyl)-4,7-dihydropyrazolo[1,5-a]pyrimidine-5-carboxamide] | > 100 | < 20
COc1nn2c(=O)c(-c3nc4c(OC)cccc4o3)c(C)[nH]c2c1-c1ccccc1 [Compound C1064, 2-methoxy-6-(4-methoxybenzo[d]oxazol-2-yl)-5-methyl-3-phenylpyrazolo[1,5-a]pyrimidin-7(4H)-one] | < 20 | 20 to 250
Cc1[nH]c2c(-c3ccccc3)c(C(F)(F)F)nn2c(=O)c1C(=O)Nc1ccn(C)n1 [Compound A1029, 5-methyl-N-(1-methyl-1H-pyrazol-3-yl)-7-oxo-3-phenyl-2-(trifluoromethyl)-4,7-dihydropyrazolo[1,5-a]pyrimidine-6-carboxamide] | 20 to 100 | < 20
Cc1[nH]c2c(-c3ccccc3)c(C(F)(F)F)nn2c(=O)c1-c1nc2ccccc2o1 [Compound C1011, 6-(benzo[d]oxazol-2-yl)-5-methyl-3-phenyl-2-(trifluoromethyl)pyrazolo[1,5-a]pyrimidin-7(4H)-one] | < 20 | > 250
COc1ccc(C(C)=O)c2oc(-c3c(C)[nH]c4c(-c5ccccc5)c(C(F)(F)F)nn4c3=O)nc12 [Compound C1111, 6-(7-acetyl-4-methoxybenzo[d]oxazol-2-yl)-5-methyl-3-phenyl-2-(trifluoromethyl)pyrazolo[1,5-a]pyrimidin-7(4H)-one] | < 20 | < 20
Cc1[nH]c2c(-c3ccccc3)c(C(F)(F)F)nn2c(=O)c1-c1nnc(C2CCOCC2)o1 [Compound D1016, 5-methyl-3-phenyl-6-(5-(tetrahydro-2H-pyran-4-yl)-1,3,4-oxadiazol-2-yl)-2-(trifluoromethyl)pyrazolo[1,5-a]pyrimidin-7(4H)-one] | > 100 | < 20
